Measured values as given in US10800807B2, “TGR5 modulators and methods of use thereof” (Intercept Pharmaceuticals, Inc., priority 2015, dated 2020).
Positions count from the first letter of the chain named. In brackets after ≈: the same amount, converted by molar mass. Where two headings read alike, the source gives them in different places.

What was measured:
[1] = target: T1, mouse glutathione transferase-tagged FXR-LBD (Mus musculus, UniProt Q60641); assay: FXR AlphaScreen coactivator recruitment assay (mouse); format: biochemical; conditions: for EC50: read-out: (mFXR) EC50; for Emax: read-out: (mFXR) Efficacy
T1 construct: mouse glutathione transferase-tagged FXR-LBD (generated in-house); made in house
T1 sequence (Q60641 264-488 limits assumed): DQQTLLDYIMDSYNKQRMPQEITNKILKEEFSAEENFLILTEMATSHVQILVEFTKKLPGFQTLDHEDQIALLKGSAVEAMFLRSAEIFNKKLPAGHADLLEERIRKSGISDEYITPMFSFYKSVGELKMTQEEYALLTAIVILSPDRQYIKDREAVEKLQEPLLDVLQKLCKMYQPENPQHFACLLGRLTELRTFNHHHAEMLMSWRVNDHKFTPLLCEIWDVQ

[2] = Lipophilicity, 1-octanol/water partition coefficient (shake-flask); format: physicochemical; conditions: pH 8.00, ionized BA
Protocol: The experiments were carried out on 1 mM initial bile salt solution buffered at pH 8.00 with 0.1 M potassium phosphate buffer to ensure complete ionization of the BA. BA concentration in the water phase before and after partition in 1-octanol was measured by HPLC-ESMS/MS as reported below.

[3] = target: bovine serum albumin (Bos taurus, UniProt P02769); assay: Albumin binding by equilibrium dialysis; format: in vitro ADME; conditions: 5% bovine serum albumin saline solution, 25° C.
Protocol: BA was dissolved at a concentration of […] in 5% bovine serum albumin saline solution and left to stand for 24 hours at 25° C. Two milliliters of this solution was dialyzed in cellulose sacs with a molecular weight cut-off of 12-14 kDa (Spectra/Por; Spectrum Medical Industries Inc., Rancho Dominguez, Calif.) against 25 ml of saline solution. The system was equilibrated by mechanical shaking for 72 hours at 25° C. BA concentrations in the starting solution and in the dialyzed solution were determined by HPLC-ES-MS/MS as reported below.

[4] = target: T2, TGR5 (Homo sapiens, UniProt Q8TDU6); assay: TGR5 activity: intracellular cAMP levels, NCI-H716 cells (HTR-FRET); format: cell-based; set-up: endogenous in cells; host or cells: NCI-H716; conditions: for Emax: read-out: TGR5 (NCI-H716) Efficacy; for EC50: cAMP
T2 sequence (Q8TDU6 1-330): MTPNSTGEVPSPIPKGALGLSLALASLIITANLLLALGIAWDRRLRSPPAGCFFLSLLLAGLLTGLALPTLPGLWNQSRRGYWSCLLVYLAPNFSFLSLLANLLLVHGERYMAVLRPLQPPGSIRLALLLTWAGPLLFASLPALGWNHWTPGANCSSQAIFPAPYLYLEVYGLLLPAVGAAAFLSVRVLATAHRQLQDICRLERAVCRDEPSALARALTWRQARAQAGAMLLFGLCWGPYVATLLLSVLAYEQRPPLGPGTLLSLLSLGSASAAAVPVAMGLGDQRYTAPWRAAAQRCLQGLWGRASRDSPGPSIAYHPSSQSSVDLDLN
Protocol: Activation of TGR5 was assessed by measuring the level of cAMP using an HTR-FRET assay. Thus, NCI-H716 cells were cultured on 96-well plates coated with Matrigel (Corning, USA) (0.75 mg/ml) in DMEM supplemented with 10% FCS, 100 units/ml penicillin, and 100 μg/ml streptomycin sulphate. […] The level of intracellular cAMP was determined with Lance kit. Z′ factor was used to validate assays.

[5] = target: T3, human glutathione transferase-tagged FXR-LBD (Homo sapiens, UniProt Q96RI1); assay: FXR AlphaScreen coactivator recruitment assay (human); format: biochemical; set-up: Emax: dose or concentration left out as unconfirmed; conditions: for EC50: human FXR-LBD, AlphaScreen, read-out: hFXR EC50; for Emax: read-out: hFXR Efficacy;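 on hFXR Efficacy: CDCA at 50 µM taken as 100%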
T3 construct: human glutathione transferase-tagged FXR-LBD (Life Technologies, USA); purchased Life Technologies, USA
T3 sequence (Q96RI1 262-486 limits assumed): T1 sequence (Q60641 264-488 limits assumed) with D7H, Y8F, S46N, I50V, A95S, A98S, K107N, V125I, M174I, Y175H

[6] = Water solubility; format: physicochemical; conditions: simulated gastric fluid, thermodynamic from solid, 0.1 M HCl, pH 1.00, 25° C., read-out: Ws
Protocol: BA were suspended in 100 ml of 0.1 M HCl, pH 1.00, and the saturated solutions were transferred to a thermostat-equipped water bath maintained at 25° C. After incubation for 1 week, the solutions were filtered on a Millipore filter ([…]), and the concentration of BA was measured by HPLC-ESMS/MS as reported below.

[7] = Critical micellar concentration (surface tension / dye solubilization); format: physicochemical
[8] = pKa
[9] = target: T2, TGR5; assay: TGR5 activity: cAMP in hTGR5 CHO-k1 cells; format: cell-based; set-up: expressed in transfected cells; host or cells: CHO-k1; conditions: for Emax: 0.5 h, read-out: hTGR5 CHO Efficacy; for EC50: cAMP
[10] = target: T4, mTGR5 (Mus musculus, UniProt Q80SS6); assay: TGR5 activity: cAMP in mTGR5 CHO-Pi10 clone 4 cells; format: cell-based; conditions: for Emax: 0.5 h, read-out: (mTGR5 CHO) Efficacy
T4 construct: expressed in transfected cells; host or cells: CHO-Pi10 clone 4
T4 sequence (Q80SS6 1-329): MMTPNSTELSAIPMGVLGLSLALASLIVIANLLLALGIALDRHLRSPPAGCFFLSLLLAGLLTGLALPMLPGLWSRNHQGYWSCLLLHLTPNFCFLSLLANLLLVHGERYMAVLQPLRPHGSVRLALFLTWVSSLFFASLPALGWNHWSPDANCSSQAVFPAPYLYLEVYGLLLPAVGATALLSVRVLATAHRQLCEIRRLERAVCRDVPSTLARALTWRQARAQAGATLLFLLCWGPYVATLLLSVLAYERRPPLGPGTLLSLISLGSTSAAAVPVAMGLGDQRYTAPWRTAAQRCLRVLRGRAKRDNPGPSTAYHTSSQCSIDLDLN

[11] = Critical micellar concentration (surface tension / dye solubilization); format: physicochemical; conditions: BA sodium salts in 0.1 M NaCl, 25° C.
Protocol: In the first method, the surface tension was performed by maximum bubble-pressure method using a Sensadyne 6000 tensiometer (Chem-Dyne Research Corp., Milwaukee, Wis.). The surface tension of aqueous solutions at various concentrations (range 0.1-100 mM) of the BA sodium salts in 0.1 M NaCl was measured at 25° C. The surface tension values were plotted against the logarithm of the bile salt concentration; the regression lines corresponding to the two parts of the curve (monomeric and micellar phases) were calculated using the method of least squares. The critical micellar concentration (CMC) value (mM) was obtained by the intersection of the two lines.
The second method is based on the fact that some dyes, specifically Orange OT ([…]), are almost insoluble in water but dissolve in solutions with micellar aggregates that incorporate them; thus, the intensity of color of the solution increases with bile salt concentration (after CMC achievement). The amount of dye solubilized in relation to bile salt concentration was determined spectrophotometrically.
For each bile acid, various solution at different concentrations, between 50 mM and 0.1 mM with appropriate dilutions, were incubated under stirring at room temperature for 3 days with an excess of Orange OT. Then all the solutions were centrifuged and filtered through a 0.22 μm Millipore fiiter (Millipore Corp., Bedford, Mass.).

[12] = mouse FXR-LBD, value in parentheses
[13] = 1 h, NCI-H716 cells, Ref. LCA 100% at 10 μM
[14] = hTGR5 CHO cells, Ref. LCA 100% at 10 μM
[15] = mTGR5 CHO cells, value in parentheses

Chain of bovine serum albumin (P02769 25-607): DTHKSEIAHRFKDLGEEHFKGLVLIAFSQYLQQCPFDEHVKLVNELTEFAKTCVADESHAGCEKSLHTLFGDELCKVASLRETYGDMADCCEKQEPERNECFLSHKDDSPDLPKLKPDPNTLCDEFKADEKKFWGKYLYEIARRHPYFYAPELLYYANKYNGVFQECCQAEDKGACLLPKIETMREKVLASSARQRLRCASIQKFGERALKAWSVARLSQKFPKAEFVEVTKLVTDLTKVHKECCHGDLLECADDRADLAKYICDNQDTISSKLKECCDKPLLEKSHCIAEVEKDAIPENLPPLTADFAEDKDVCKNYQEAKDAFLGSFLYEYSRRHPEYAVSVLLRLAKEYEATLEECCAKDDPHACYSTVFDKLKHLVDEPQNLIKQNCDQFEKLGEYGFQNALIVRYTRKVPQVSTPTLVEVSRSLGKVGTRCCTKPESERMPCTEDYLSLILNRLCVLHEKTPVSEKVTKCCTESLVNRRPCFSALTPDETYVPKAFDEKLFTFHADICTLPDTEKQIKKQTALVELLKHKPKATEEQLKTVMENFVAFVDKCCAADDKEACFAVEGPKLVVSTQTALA

| Structure (SMILES) | EC50 [1, 12] [nM] | Emax [1, 12] [%] | LogPA− [2] | Albumin binding (%) [3] [%] | Emax [4, 13] [%] | EC50 ([4]; NCI-H716 cells) [nM] | EC50 [5] [nM] | Emax [5] [%] | solubility thermodynamic at 1 week [6] [µM] | CMpH [7] | pKa [8] | Emax [9, 14] [%] | EC50 ([9]; hTGR5 CHO cells) [nM] | Emax [10, 15] [%] | EC50 [10, 15] [nM] | CMC [11] [mM] | other results |
| --- | --- | --- | --- | --- | --- | --- | --- | --- | --- | --- | --- | --- | --- | --- | --- | --- | --- |
| CC[C@H]1[C@@H](O)C2C3CC[C@H]([C@H](C)C(F)(F)C(=O)O)[C@@]3(C)CCC2[C@@]2(C)CC[C@@H](O)C[C@@H]12 (stereo partly drawn) (hydrate or solvate) | – | – | – | – | – | – | – | – | – | – | – | – | – | – | – | – | melting point: 254 to 256 °C |
| CC[C@H]1[C@@H](O)C2C3CC[C@H]([C@H](C)CCc4noc(=O)[nH]4)[C@@]3(C)[C@@H](O)CC2[C@@]2(C)CC[C@@H](O)C[C@@H]12 (stereo partly drawn) [Compound 11, 3α,7α,12α-trihydroxy-6α-ethyl-24-nor-5β-23([1,2,4]-oxadiazole-3-one-5yl)-cholane] | 7700 | 100 | 1.6 | 84 | 105 | 2000 | 1000 | 140 | 392 (≈ 187 µg/mL) | 7.0 | 5.94 | 96 ± 19 | 2700 ± 1800 | 108 | 1400 | 5 | – |
| CC[C@H]1[C@@H](O)C2C3CC[C@H]([C@H](C)CCc4nn[nH]n4)[C@@]3(C)[C@@H](O)CC2[C@@]2(C)CC[C@@H](O)C[C@@H]12 (stereo partly drawn) [Compound 12, 3α,7α,12α-Trihydroxy-6α-ethyl-23-(tetrazol-5-yl)-24-nor-5β-cholane] | 12700 | 93 | 1.5 | 83 | 104 | 4000 | 1700 ± 600 | 125 ± 15 | 517 (≈ 238 µg/mL) | 6.6 | 5.59 | 101 ± 1.4 | 710 ± 80 | 105 | 840 | 5 | – |
| CC[C@@H]1C2C[C@H](O)CC[C@]2(C)C2CC[C@@]3(C)C(CC[C@@H]3[C@H](C)Cc3nc(=O)o[nH]3)C2[C@@H]1O (stereo partly drawn) [Compound 14] | 460 | 264 | 1.9 | 99 | 110 ± 2 | 1600 ± 300 | 75 ± 10 | 165 ± 15 | 2020 (≈ 904 µg/mL) | 5.0 | 5 | 107 ± 1 | 480 ± 300 | 111 | 900 | 10 | – |
| CC[C@H]1[C@@H](O)[C@@H]2[C@H](CC[C@]3(C)[C@@H]([C@H](C)CCc4nn[nH]n4)[C@@H](O)C[C@@H]23)[C@@]2(C)CC[C@@H](O)C[C@@H]12 [Compound 17, 3α,7α,16β-Trihydroxy-6α-ethyl-23-(tetrazol-5-yl)-24-nor-5β-cholane] | 2300 | 171 | 2.0 | 90 | 119 ± 2 | 1200 ± 100 | 450 ± 50 | 138 ± 9 | 5 (≈ 2.3 µg/mL) | 9.0 | 5.71 | 103 ± 2 | 100 ± 40 | 101 | 800 | 11 | – |
| CC[C@H]1[C@@H](O)C2C3CC[C@H]([C@H](C)CC(=O)NCCO)[C@@]3(C)CCC2[C@@]2(C)CC[C@@H](O)C[C@@H]12 (stereo partly drawn) [Compound 19, 3α,7α-Dihydroxy-6α-ethyl-N-(2-hydroxyethyl)-24-nor-5β-cholan-23-amide] | 10000 | – | 1.0 | 51 | – | 160 ± 10 | 3000 ± 1000 | 137 ± 2 | 2150 (≈ 967 µg/mL) | 1.3 | 14.3 | – | 20 ± 8 | – | 80 | 5 | Emax [1]: 122%; Emax ([4]; NCI-H716, 1 h): 128 ± 1%; Emax ([9]; CHO): 105 ± 2%; Emax ([10]; CHO): 106% |
